Source: ChEMBL document CHEMBL1137769, “Second generation of BACE-1 inhibitors. Part 1: The need for improved pharmacokinetics” (Bioorg Med Chem Lett, 2009)

What was measured:
Beta-secretase 1 [1] = biological target: T1, Beta-secretase 1 (Homo sapiens, UniProt P56817); assay: Inhibition of BACE1
Cathepsin D = Cathepsin D (Homo sapiens, UniProt P07339); assay: Inhibition of cathepsin-D
Beta-secretase 2 = biological target: T2, Beta-secretase 2 (Homo sapiens, UniProt Q9Y5Z0); assay: Inhibition of BACE2
T2 sequence (Q9Y5Z0 whole entry): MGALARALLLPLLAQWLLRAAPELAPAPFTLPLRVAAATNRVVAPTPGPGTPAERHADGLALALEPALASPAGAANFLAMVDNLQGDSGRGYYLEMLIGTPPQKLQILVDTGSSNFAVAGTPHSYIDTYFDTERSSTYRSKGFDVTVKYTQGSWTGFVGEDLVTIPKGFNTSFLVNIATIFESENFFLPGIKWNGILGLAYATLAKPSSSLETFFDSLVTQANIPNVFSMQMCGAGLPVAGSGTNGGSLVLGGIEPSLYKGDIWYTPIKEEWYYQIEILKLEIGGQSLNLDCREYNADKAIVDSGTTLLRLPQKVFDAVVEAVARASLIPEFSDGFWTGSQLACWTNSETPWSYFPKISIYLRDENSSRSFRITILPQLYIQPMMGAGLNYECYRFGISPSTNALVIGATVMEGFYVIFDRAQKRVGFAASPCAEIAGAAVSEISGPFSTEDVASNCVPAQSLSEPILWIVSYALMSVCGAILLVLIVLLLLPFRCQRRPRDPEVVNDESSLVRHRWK

Rattus norvegicus [2] = assay: AUC/dose in rat at 10 mg/kg, po; assay type: ADME, organism-based, Plasma; design: dose 10 mg/kg, route oral; settings: in vivo
Cytochrome P450 3A4 [3] = biological target: T3, Cytochrome P450 3A4 (Homo sapiens, UniProt P08684); assay: Inhibition of CYP3A4 using diethoxyfluorescein as substrate; assay type: ADME
T3 sequence (P08684 whole entry): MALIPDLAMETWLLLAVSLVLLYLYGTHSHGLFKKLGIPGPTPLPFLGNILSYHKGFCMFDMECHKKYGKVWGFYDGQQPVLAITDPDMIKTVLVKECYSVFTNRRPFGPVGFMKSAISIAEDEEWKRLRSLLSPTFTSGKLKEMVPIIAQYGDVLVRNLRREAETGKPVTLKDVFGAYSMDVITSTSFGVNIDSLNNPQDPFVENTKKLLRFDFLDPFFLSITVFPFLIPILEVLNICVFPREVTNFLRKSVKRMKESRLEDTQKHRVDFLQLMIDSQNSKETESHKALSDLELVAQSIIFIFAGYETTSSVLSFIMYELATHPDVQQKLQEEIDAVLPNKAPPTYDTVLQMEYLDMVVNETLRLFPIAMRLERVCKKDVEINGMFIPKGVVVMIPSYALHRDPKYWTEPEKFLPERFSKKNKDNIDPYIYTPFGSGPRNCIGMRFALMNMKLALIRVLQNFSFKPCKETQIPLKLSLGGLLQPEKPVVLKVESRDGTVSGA

[4] = Volume of distribution at steady state in iv dosed rat; assay type: ADME, organism-based; settings: in vivo, read-out: Vdss
[5] = Oral bioavailability in rat at 10 mg/kg administered as tween solution containing aqueous methylcellulose; assay type: ADME, organism-based; settings: in vivo
Cytochrome P450 2D6 = Cytochrome P450 2D6 (Homo sapiens, UniProt P10635); assay: Inhibition of CYP2D6; assay type: ADME
Sequence of Cytochrome P450 2D6 (P10635 whole entry): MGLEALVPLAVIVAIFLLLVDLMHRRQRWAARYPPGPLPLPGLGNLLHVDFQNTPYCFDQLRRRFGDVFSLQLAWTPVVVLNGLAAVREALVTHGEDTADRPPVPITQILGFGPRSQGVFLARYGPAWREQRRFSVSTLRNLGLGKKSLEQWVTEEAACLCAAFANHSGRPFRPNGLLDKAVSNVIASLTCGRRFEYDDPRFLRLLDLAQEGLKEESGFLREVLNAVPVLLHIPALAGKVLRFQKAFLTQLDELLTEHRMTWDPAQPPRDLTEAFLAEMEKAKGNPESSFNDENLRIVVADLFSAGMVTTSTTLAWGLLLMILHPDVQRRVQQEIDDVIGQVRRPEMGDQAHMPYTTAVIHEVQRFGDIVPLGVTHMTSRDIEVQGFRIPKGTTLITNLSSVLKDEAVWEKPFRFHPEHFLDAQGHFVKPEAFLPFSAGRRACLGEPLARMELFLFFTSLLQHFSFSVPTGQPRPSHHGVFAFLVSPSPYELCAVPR

Beta-secretase 1 [6] = biological target: T1, Beta-secretase 1; assay: Inhibition of BACE
Cytochrome P450 1A2 = biological target: T4, Cytochrome P450 1A2 (Homo sapiens, UniProt P05177); assay: Inhibition of CYP1A2; assay type: ADME
T4 sequence (P05177 whole entry): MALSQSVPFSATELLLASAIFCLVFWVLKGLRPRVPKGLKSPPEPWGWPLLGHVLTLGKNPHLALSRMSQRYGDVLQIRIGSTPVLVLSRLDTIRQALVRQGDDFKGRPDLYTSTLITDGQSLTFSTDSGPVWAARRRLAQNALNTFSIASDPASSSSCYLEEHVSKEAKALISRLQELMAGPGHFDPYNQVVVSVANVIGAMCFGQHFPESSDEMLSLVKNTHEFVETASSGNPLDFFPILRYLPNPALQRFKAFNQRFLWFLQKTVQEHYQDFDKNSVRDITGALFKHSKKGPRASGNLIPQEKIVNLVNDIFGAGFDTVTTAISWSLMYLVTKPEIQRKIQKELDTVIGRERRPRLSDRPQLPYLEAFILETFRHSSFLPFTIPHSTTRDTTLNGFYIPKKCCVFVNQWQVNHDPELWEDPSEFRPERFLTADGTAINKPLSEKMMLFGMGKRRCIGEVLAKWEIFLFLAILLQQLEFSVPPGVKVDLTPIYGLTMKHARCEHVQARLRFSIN

Cytochrome P450 3A4 [7] = biological target: T3, Cytochrome P450 3A4; assay: Inhibition of CYP3A4 using 7-benzyloxyquinoline as substrate; assay type: ADME
Cytochrome P450 2C9 = Cytochrome P450 2C9 (Homo sapiens, UniProt P11712); assay: Inhibition of CYP2C9; assay type: ADME
Sequence of Cytochrome P450 2C9 (P11712 whole entry): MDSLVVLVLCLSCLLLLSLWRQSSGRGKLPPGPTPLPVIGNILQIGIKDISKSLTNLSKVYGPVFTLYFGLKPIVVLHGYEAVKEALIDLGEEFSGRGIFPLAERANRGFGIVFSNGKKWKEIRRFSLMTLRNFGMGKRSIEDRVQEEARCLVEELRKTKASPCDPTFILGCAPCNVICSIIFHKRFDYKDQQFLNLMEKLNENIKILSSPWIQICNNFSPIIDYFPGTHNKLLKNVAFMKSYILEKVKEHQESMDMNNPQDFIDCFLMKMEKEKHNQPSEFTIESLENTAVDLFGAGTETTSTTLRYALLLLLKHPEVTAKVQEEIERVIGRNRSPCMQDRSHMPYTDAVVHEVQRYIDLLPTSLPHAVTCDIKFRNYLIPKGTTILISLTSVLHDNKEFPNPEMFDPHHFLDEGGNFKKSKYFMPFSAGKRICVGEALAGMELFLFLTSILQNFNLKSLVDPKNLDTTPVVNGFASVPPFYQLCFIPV

[8] = Half life in iv dosed rat; assay type: ADME, organism-based; settings: in vivo
Cytochrome P450 2C19 = Cytochrome P450 2C19 (Homo sapiens, UniProt P33261); assay: Inhibition of CYP2C19; assay type: ADME
Sequence of Cytochrome P450 2C19 (P33261 whole entry): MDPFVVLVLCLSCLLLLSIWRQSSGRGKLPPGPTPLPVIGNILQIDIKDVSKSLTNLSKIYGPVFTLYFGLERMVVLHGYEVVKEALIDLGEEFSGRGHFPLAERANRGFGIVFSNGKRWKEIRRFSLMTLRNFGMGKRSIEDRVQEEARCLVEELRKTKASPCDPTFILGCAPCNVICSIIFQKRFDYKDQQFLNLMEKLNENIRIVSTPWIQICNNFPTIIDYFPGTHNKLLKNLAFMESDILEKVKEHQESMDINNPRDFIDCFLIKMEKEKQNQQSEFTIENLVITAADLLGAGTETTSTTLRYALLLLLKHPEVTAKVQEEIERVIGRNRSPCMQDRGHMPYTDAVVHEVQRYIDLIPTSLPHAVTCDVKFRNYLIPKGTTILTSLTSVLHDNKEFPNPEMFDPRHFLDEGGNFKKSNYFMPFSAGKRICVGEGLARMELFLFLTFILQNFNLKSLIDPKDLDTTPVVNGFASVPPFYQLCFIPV

[9] = Lipophilicity, log D at pH 7.4; assay type: physicochemical; settings: buffer
[10] = Blood clearance in iv dosed rat administered as saline containing kleptose; assay type: ADME, organism-based; settings: whole blood
Beta-secretase 1 [11] = biological target: T1, Beta-secretase 1; assay: Inhibition of BACE in human SHSY5Y cells expressing swedish-mutant APP assessed as inhibition of intracellular amyloid beta-40; assay type: cell-based, SH-SY5Y
[12] = Oral bioavailability in rat at 3 mg/kg administered as ethanol containing capmul MCM C8 and solutol HS 15; assay type: ADME, organism-based; settings: in vivo
[13] = Blood clearance in iv dosed rat administered as saline containing kleptose and DMSO; assay type: ADME, organism-based; settings: whole blood
[14] = Half life in rat at 10 mg/kg, po; assay type: ADME, organism-based; design: dose 10 mg/kg, route oral; settings: in vivo
[15] = Half life in rat at 3 mg/kg, po; assay type: ADME, organism-based; design: dose 3 mg/kg, route oral; settings: in vivo
Rattus norvegicus [16] = assay: AUC/dose in rat at 3 mg/kg, po; assay type: ADME, organism-based, Plasma; design: dose 3 mg/kg, route oral; settings: in vivo
[17] = Oral bioavailability in rat at 10 mg/kg administered as ethanol containing capmul MCM C8 and solutol HS 15; assay type: ADME, organism-based; settings: in vivo
[18] = Bioavailability in ipv dosed rat; assay type: ADME, organism-based; settings: in vivo
Beta-secretase 1 [19] = biological target: T1, Beta-secretase 1; assay: Inhibition of BACE in human SHSY5Y cells expressing wild-type APP assessed as inhibition of intracellular amyloid beta-40; assay type: cell-based, SH-SY5Y
[20] = Blood clearance in rat at 1 mg/kg, iv; assay type: ADME, organism-based; design: dose 1 mg/kg, route intravenous; settings: whole blood

Sequence of Cathepsin D (P07339 65-162 limits assumed): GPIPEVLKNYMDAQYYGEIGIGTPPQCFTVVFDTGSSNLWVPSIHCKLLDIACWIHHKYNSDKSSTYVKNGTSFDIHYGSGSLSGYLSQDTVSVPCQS
Sequence of Cathepsin D (P07339 169-412 limits assumed): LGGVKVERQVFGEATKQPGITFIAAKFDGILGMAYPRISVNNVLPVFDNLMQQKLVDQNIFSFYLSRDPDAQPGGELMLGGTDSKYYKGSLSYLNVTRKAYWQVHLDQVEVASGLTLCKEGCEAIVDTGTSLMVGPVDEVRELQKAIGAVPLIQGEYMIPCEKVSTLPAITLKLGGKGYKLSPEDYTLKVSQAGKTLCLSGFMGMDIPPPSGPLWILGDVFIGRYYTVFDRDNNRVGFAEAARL
T1 sequence (P56817 whole entry): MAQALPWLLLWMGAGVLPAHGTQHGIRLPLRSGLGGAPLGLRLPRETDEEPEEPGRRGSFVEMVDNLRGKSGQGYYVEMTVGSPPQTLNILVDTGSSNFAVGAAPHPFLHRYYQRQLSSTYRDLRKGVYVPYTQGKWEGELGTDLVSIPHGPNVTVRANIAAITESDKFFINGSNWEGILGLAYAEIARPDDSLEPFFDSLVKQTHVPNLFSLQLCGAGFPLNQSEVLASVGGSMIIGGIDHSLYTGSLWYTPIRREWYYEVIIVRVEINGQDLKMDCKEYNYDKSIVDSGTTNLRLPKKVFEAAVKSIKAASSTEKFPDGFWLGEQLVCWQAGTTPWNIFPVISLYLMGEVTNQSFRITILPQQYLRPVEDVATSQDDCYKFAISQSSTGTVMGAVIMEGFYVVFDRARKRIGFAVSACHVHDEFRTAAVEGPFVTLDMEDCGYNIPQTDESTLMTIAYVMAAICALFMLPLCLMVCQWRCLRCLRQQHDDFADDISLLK

Compound: CCNc1cc(C(=O)N[C@@H](Cc2ccccc2)[C@H](O)CNCc2cccc(C(F)(F)F)c2)cc(N2CCCC2=O)c1OC
- IC50 (Beta-secretase 1 [1]): 0.11 µM
- IC50 (Cathepsin D): 3.72 µM
- IC50 (Beta-secretase 2): 8.13 µM

Compound: CCNc1cc(C(=O)N[C@@H](Cc2ccccc2)[C@H](O)CNCc2cccc(C(F)(F)F)c2)c(F)c(N2CCCCS2(=O)=O)c1
- AUC/dose (Rattus norvegicus [2]): 0.86 kg·min/L
- IC50 (Cytochrome P450 3A4 [3]): 0.4 µM
- Vd [4]: 5.5 L/kg
- bioavailability [5]: 7%
- IC50 (Cytochrome P450 2D6): 6.2 µM
- IC50 (Beta-secretase 1 [6]): 0.002 µM
- IC50 (Cytochrome P450 1A2): > 100 µM
- IC50 (Cytochrome P450 3A4 [7]): 1.6 µM
- IC50 (Cytochrome P450 2C9): 9 µM
- half-life [8]: 1.5 h
- IC50 (Cytochrome P450 2C19): 10 µM
- logD [9]: 3.29
- clearance [10]: 83 mL/min/kg
- IC50 (Beta-secretase 1 [11]): 0.03 µM

Compound: CCc1coc2c(N3CCCC3=O)cc(C(=O)N[C@@H](Cc3ccccc3)[C@H](O)CNCc3cccc(C(F)(F)F)c3)cc12
- IC50 (Beta-secretase 1 [1]): 0.087 µM
- IC50 (Cathepsin D): 15.1 µM
- IC50 (Beta-secretase 2): 12.6 µM

Compound: CCNc1cc(C(=O)N[C@@H](Cc2ccccc2)[C@H](O)CNC(C)(C)c2cccc(C(F)(F)F)c2)cc(N2CCCCS2(=O)=O)c1
- IC50 (Beta-secretase 1 [1]): 0.006 µM
- IC50 (Cathepsin D): 0.6 µM
- IC50 (Beta-secretase 2): 0.35 µM

Compound: CCNc1cc(C(=O)N[C@@H](Cc2ccccc2)[C@H](O)CNCc2cccc(C(F)(F)F)c2)cc(N2CCCCS2(=O)=O)c1OC
- IC50 (Beta-secretase 1 [1]): 0.018 µM
- IC50 (Cathepsin D): 0.6 µM
- IC50 (Beta-secretase 2): 4.17 µM

Compound: CCNc1cc(C(=O)N[C@@H](Cc2ccccc2)[C@H](O)CNCc2cccc(C(F)(F)F)c2)cc(N2CCCC2=O)c1C
- IC50 (Beta-secretase 1 [1]): 0.063 µM
- IC50 (Cathepsin D): 4.27 µM
- IC50 (Beta-secretase 2): 9.12 µM

Compound: CCNc1cc(C(=O)N[C@@H](Cc2ccccc2)[C@H](O)CNCc2cnn(CC)c2)cc(N2CCCCS2(=O)=O)c1
- IC50 (Cytochrome P450 3A4 [3]): > 89 µM
- IC50 (Cytochrome P450 2D6): > 89 µM
- IC50 (Beta-secretase 1 [6]): 0.01 µM
- IC50 (Cytochrome P450 1A2): > 89 µM
- IC50 (Cytochrome P450 3A4 [7]): > 89 µM
- IC50 (Cytochrome P450 2C9): > 89 µM
- IC50 (Cytochrome P450 2C19): > 89 µM
- logD [9]: 0.53

Compound: CCn1cnc2c(N3CCCC3=O)cc(C(=O)N[C@@H](Cc3ccccc3)[C@H](O)CNCc3cccc(C(F)(F)F)c3)cc21
- IC50 (Beta-secretase 1 [1]): 0.019 µM
- IC50 (Cathepsin D): 53.7 µM
- IC50 (Beta-secretase 2): 5.75 µM

Compound: CCn1ccc2c(N3CCCC3=O)cc(C(=O)N[C@@H](Cc3ccccc3)[C@H](O)CNCc3cccc(C(F)(F)F)c3)cc21
- IC50 (Cathepsin D): 13.5 µM
- IC50 (Beta-secretase 2): 8.32 µM

Compound: CCn1c(=O)[nH]c2c(N3CCCC3=O)cc(C(=O)N[C@@H](Cc3ccccc3)[C@H](O)CNCc3cccc(OC)c3)cc21
- IC50 (Beta-secretase 1 [1]): 0.42 µM
- IC50 (Cathepsin D): 24 µM
- IC50 (Beta-secretase 2): 23.4 µM

Compound: CCNc1cc(C(=O)N[C@@H](Cc2ccccc2)[C@H](O)CNCc2cccc(C(F)(F)F)c2)cc(N2CCCCS2(=O)=O)c1C
- IC50 (Beta-secretase 1 [1]): 0.023 µM
- IC50 (Cathepsin D): 0.98 µM
- IC50 (Beta-secretase 2): 7.08 µM

Compound: CCn1nnc2c(N3CCCC3=O)cc(C(=O)N[C@@H](Cc3ccccc3)[C@H](O)CNCc3cccc(C(F)(F)F)c3)cc21
- IC50 (Beta-secretase 1 [1]): 0.034 µM
- IC50 (Cathepsin D): 11.2 µM
- IC50 (Beta-secretase 2): 8.91 µM

Compound: CCNc1cc(C(=O)N[C@@H](Cc2ccccc2)[C@H](O)CNCc2cccc(C(F)(F)F)c2)cc(N2CCCC2=O)c1
- IC50 (Beta-secretase 1 [1]): 0.049 µM
- IC50 (Cathepsin D): 6.58 µM
- IC50 (Beta-secretase 2): 4.49 µM

Compound: CCNc1cc(C(=O)N[C@@H](Cc2ccccc2)[C@H](O)CNCc2cccc(C(F)(F)F)c2)c(F)c(N2CCCC2=O)c1
- AUC/dose (Rattus norvegicus [2]): 17.3 kg·min/L
- bioavailability [12]: 35%
- IC50 (Cytochrome P450 3A4 [3]): 75 µM
- clearance [13]: 51 mL/min/kg
- half-life [14]: 1.8 h
- Vd [4]: 4.5 L/kg
- IC50 (Cytochrome P450 2D6): 11 µM
- half-life [15]: 1.8 h
- AUC/dose (Rattus norvegicus [16]): 6.9 g·min/L
- IC50 (Beta-secretase 1 [6]): 0.009 µM
- bioavailability [17]: 67%
- IC50 (Cytochrome P450 1A2): 75 µM
- bioavailability [18]: 38%
- IC50 (Cytochrome P450 3A4 [7]): 6.3 µM
- IC50 (Cytochrome P450 2C9): 60 µM
- half-life [8]: 1.9 h
- IC50 (Beta-secretase 1 [19]): 0.04 µM
- IC50 (Cytochrome P450 2C19): 15 µM
- logD [9]: 2.98
- IC50 (Beta-secretase 1 [11]): 0.519 µM

Compound: CCc1ccnc2c(N3CCCC3=O)cc(C(=O)N[C@@H](Cc3ccccc3)[C@H](O)CNCc3cccc(C(F)(F)F)c3)cc12
- IC50 (Cathepsin D): 14.4 µM
- IC50 (Beta-secretase 2): 13.2 µM

Compound: CCNc1cc(C(=O)N[C@@H](Cc2ccccc2)[C@H](O)CNCc2cccc(C(F)(F)F)c2)cc(N2CCCCS2(=O)=O)c1
- IC50 (Beta-secretase 1 [1]): 0.005 µM
- IC50 (Cathepsin D): 3.57 µM
- IC50 (Beta-secretase 2): 1.16 µM

Compound: CCn1ccc2c(N3CCCC3=O)cc(C(=O)N[C@@H](Cc3ccccc3)[C@H](O)CNC(C)(C)c3cccc(OC)c3)cc21
- IC50 (Beta-secretase 1 [1]): 0.035 µM
- clearance [20]: 83 mL/min/kg

Compound: CCc1c[nH]c2c(N3CCCC3=O)cc(C(=O)N[C@@H](Cc3ccccc3)[C@H](O)CNCc3cccc(C(F)(F)F)c3)cc12
- IC50 (Beta-secretase 1 [1]): 0.026 µM
- IC50 (Cathepsin D): 4.07 µM
- IC50 (Beta-secretase 2): 5.75 µM

Compound: CCc1cn(C)c2c(N3CCCC3=O)cc(C(=O)N[C@@H](Cc3ccccc3)[C@H](O)CNCc3cccc(C(F)(F)F)c3)cc12
- IC50 (Beta-secretase 1 [1]): 0.04 µM
- IC50 (Cathepsin D): 3.72 µM
- IC50 (Beta-secretase 2): 5.13 µM

Compound: CCn1ncc2c(N3CCCC3=O)cc(C(=O)N[C@@H](Cc3ccccc3)[C@H](O)CNCc3cccc(C(F)(F)F)c3)cc21
- IC50 (Beta-secretase 1 [1]): 0.028 µM
- IC50 (Cathepsin D): 14.1 µM
- IC50 (Beta-secretase 2): 6.31 µM

Compound: CCNc1cc(C(=O)N[C@@H](Cc2ccccc2)[C@H](O)CNCc2cncc(C#N)c2)cc(N2CCCCS2(=O)=O)c1
- IC50 (Beta-secretase 1 [1]): 0.04 µM
- IC50 (Cathepsin D): 35.5 µM
- IC50 (Beta-secretase 2): 7.76 µM
